Columns and labels:
[1] = system: Corynebacterium glutamicum ATCC 13032; test: MIC assay, antibiotic susceptible reference strain; type: cell-based; details: Corynebacterium glutamicum, ATCC13032, read-out: Antimicrobial activity (MIC) C. g
Protocol: (§1) Working solutions of the test derivatives were prepared with up to 100% DMSO and stored at −20° C. If necessary, the solutions were heated to 40-80° C. before testing to facilitate complete dissolution. Double-distilled water was used in all dilutions prepared. […] A microdilution susceptibility test was used for MIC determination according to Clinical and Laboratory Standards Institute, “Methods for Dilution Antimicrobial Sisceptibility Tests for Bacteria That Graw Aerobically”, Approved Standard M07-A9, edition 2012, with modifications as described by Igumnova et al (Bioorg Med Chem, 2016, 24 (22), 5884-5894).
(§2) Briefly, the bacterial inoculum was adjusted to approximately 2.5-3×10^4 cells/mL in Mueller-Hinton broth (MHB, Difco Laboratories, USA), and incubated in a ratio of 1:1 with test derivatives in polystyrene 96-well flat-bottom microplates (NUNC, Roskilde, Denmark). Positive growth control (without test derivatives) and negative control (without bacteria) were included. The reference antibiotic was oxytetracycline hydrochloride (Sigma Aldrich, Saint Louis, Mo., USA). The microplates were incubated in an EnVision microplate reader (Perkin-Elmer, Turku, Finland) placed in an incubator set to 35° C. for 48 h. The MIC value was defined as the lowest concentration of derivative resulting in no bacterial growth as determined by OD600 measurement. All derivatives were tested in three parallels.

[2] = system: Escherichia coli ATCC 25922; test: MIC assay, antibiotic susceptible reference strain; type: cell-based; details: Escherichia coli, ATCC25922, read-out: Antimicrobial activity (MIC) E. c
Protocol: as §1, §2

[3] = system: Pseudomonas aeruginosa PA01, DSM 19880 (ATCC 15692); test: MIC assay, antibiotic susceptible reference strain; type: cell-based; details: Pseudomonas aeruginosa, read-out: Antimicrobial activity (MIC) P. a
Protocol: as §1, §2

[4] = system: Staphylococcus aureus ATCC 9144; test: MIC assay, antibiotic susceptible reference strain; type: cell-based; details: Staphylococcus aureus, ATCC9144, read-out: Antimicrobial activity (MIC) S. a
Protocol: as §1, §2

E. coli 50579417 = test: MIC, multi-resistant clinical isolate; type: cell-based, Escherichia coli
Protocol: as §1, §2
(§3) The MIC was determined as explained above with some exceptions; working solutions of test derivatives were prepared from concentrated DMSO stocks stored at room temperature, the density of the bacterial inoculum was increased 40× to 1-1.2×10^6 cells/mL, enterococci were incubated in Brain Heart Infusion broth (BHIB, Difco Laboratories, USA), the microplates were incubated for 24 h, and the derivatives were tested in four parallels.

E. coli 50639799 = test: MIC, multi-resistant clinical isolate; type: cell-based, Escherichia coli
Protocol: as §1, §2, §3

E. coli 50676002 = test: MIC, multi-resistant clinical isolate; type: cell-based, Escherichia coli
Protocol: as §1, §2, §3

E. coli 50739822 = test: MIC, multi-resistant clinical isolate; type: cell-based, Escherichia coli
Protocol: as §1, §2, §3

E. coli 50857972 = test: MIC, multi-resistant clinical isolate; type: cell-based, Escherichia coli
Protocol: as §1, §2, §3

P. aeruginosa 50692172 = test: MIC, multi-resistant clinical isolate; type: cell-based, Pseudomonas aeruginosa
Protocol: as §1, §2, §3

P. aeruginosa 50692520 = test: MIC, multi-resistant clinical isolate; type: cell-based, Pseudomonas aeruginosa
Protocol: as §1, §2, §3

P. aeruginosa K34-73 = test: MIC, multi-resistant clinical isolate; type: cell-based, Pseudomonas aeruginosa
Protocol: as §1, §2, §3

P. aeruginosa K34-7 = test: MIC, multi-resistant clinical isolate; type: cell-based, Pseudomonas aeruginosa
Protocol: as §1, §2, §3

P. aeruginosa K44-24 = test: MIC, multi-resistant clinical isolate; type: cell-based, Pseudomonas aeruginosa
Protocol: as §1, §2, §3

K. pneumoniae 50667959 = test: MIC, multi-resistant clinical isolate; type: cell-based, Klebsiella pneumoniae
Protocol: as §1, §2, §3

K. pneumoniae K47-25 = test: MIC, multi-resistant clinical isolate; type: cell-based, Klebsiella pneumoniae
Protocol: as §1, §2, §3

K. pneumoniae K66-45 = test: MIC, multi-resistant clinical isolate; type: cell-based, Klebsiella pneumoniae
Protocol: as §1, §2, §3

A. baumanii K63-58 = test: MIC, multi-resistant clinical isolate; type: cell-based, Acinetobacter baumannii; details: A. baumanii K63-58, resistant to colistin
[5] = system: human metastatic melanoma (A2058, ATCC CRL-11147) cells; test: Anti-cancer activity against A2058 cells; type: cell-based; details: A2058, read-out: Anti-cancer IC50
Protocol: Cytotoxicity of the test compounds was evaluated after 72 hour exposure to human metastatic melanoma (A2058, ATCC CRL-11147) cells.
A2058 cells were grown overnight (2,000 cells/well), and then incubated with the test compounds (range of concentrations) diluted in MEM Earle's supplemented with gentamycin (10 μg/mL), non-essential amino acids (1%), sodium pyruvate (1 mM), L-alanyl-Lglutamine (2 mM), but without FBS (total volume was 100 μl) for […]. Ten μL of CellTiter 96® AQueous One Solution Reagent (Promega, Madison, Wis., USA) was added, and the plates were then further incubated for 1 hour.
Absorbance was measured at 485 nm in a DTX 880 Multimode Detector. Results were calculated as % survival compared to negative (assay media) and positive (Triton X-100; Sigma-Aldrich) controls.

[6] = system: panel of 30 multi-resistant clinical isolates of Gram-positive and Gram-negative bacteria; test: MIC screening, ranges over the panel of clinical isolates; type: cell-based; details: read-out: MIC values against all the 30 multi-resistant clinical isolates
Protocol: as §1, §2, §3

[7] = Escherichia coli, read-out: Antimicrobial activity (MIC)
[8] = Pseudomonas aeruginosa, read-out: Antimicrobial activity (MIC)

CC(C)(C)c1cc(CC2(Cc3cc(C(C)(C)C)cc(C(C)(C)C)c3)C(=O)N(CCCCN)C(=O)N(CCCCN)C2=O)cc(C(C)(C)C)c1 [7(iii), 1,3-bis(4-aminobutyl)-5,5-bis(3,5-di-tert-butylbenzyl)-pyrimidin-2,4,6(1H,3H,5H)-trione]
(<2.5): selectivity index (EC50/MIC) (P. aeruginosa K34-73; RBC EC50 / MIC, P. aeruginosa K34-73) | selectivity index (EC50/MIC) (K. pneumoniae K47-25; RBC EC50 / MIC, K. pneumoniae K47-25, resistant to colistin)
(<0.5): selectivity index (EC50/MIC) (P. aeruginosa 50692172; RBC EC50 / MIC) | selectivity index (EC50/MIC) (P. aeruginosa 50692520; RBC EC50 / MIC) | selectivity index (EC50/MIC) (P. aeruginosa K34-7; RBC EC50 / MIC, P. aeruginosa K34-7) | selectivity index (EC50/MIC) (P. aeruginosa K44-24; RBC EC50 / MIC) | selectivity index (EC50/MIC) (K. pneumoniae 50667959; RBC EC50 / MIC) | selectivity index (EC50/MIC) (K. pneumoniae K66-45; RBC EC50 / MIC, K. pneumoniae K66-45)
4 µg/mL: MIC [3] | MIC (E. coli 50579417; [7]) | MIC (E. coli 50639799; [7]) | MIC (E. coli 50739822; [7]) | MIC (E. coli 50857972; [7]) | MIC (A. baumanii K63-58; Acinetobacter baumannii, K6358, 24 h, read-out: Antimicrobial activity (MIC))
2 µg/mL: MIC [2]
8 µg/mL: MIC (E. coli 50676002; Escherichia coli, 50676002, read-out: Antimicrobial activity (MIC)) | MIC (P. aeruginosa 50692172; [8]) | MIC (P. aeruginosa 50692520; [8]) | MIC (P. aeruginosa K34-7; Pseudomonas aeruginosa, K347, read-out: Antimicrobial activity (MIC)) | MIC (P. aeruginosa K44-24; Pseudomonas aeruginosa, K4424, read-out: Antimicrobial activity (MIC)) | MIC (K. pneumoniae 50667959; Klebsiella pneumoniae, read-out: Antimicrobial activity (MIC)) | MIC (K. pneumoniae K66-45; Klebsiella pneumoniae, K6645, read-out: Antimicrobial activity (MIC))
16 µg/mL: MIC (P. aeruginosa K34-73; Pseudomonas aeruginosa, K3473, read-out: Antimicrobial activity (MIC)) | MIC (K. pneumoniae K47-25; Klebsiella pneumoniae, K4725, 24 h, read-out: Antimicrobial activity (MIC))
(<1): selectivity index (EC50/MIC) (E. coli 50579417; RBC EC50 / MIC) | selectivity index (EC50/MIC) (E. coli 50639799; RBC EC50 / MIC) | selectivity index (EC50/MIC) (E. coli 50739822; RBC EC50 / MIC) | selectivity index (EC50/MIC) (E. coli 50857972; RBC EC50 / MIC) | selectivity index (EC50/MIC) (A. baumanii K63-58; RBC EC50 / MIC)
0.25 µg/mL: MIC [1]
(<0.5: selectivity index (EC50/MIC) (E. coli 50676002; RBC EC50 / MIC, E. coli 50676002)
2 to 16 µg/mL: MIC [6]
1 µg/mL: MIC [4] | IC50 [5]

From US11072588B2, “Barbituric acid derivatives comprising cationic and lipophilic groups” (UNIVERSITETET I TROMSØ—NORGES ARKTISKE UNIVERSITET, priority 2017, dated 2021)
